Experimental data as given in patent US8865894B2, “Oxazolidin-2-one compounds and uses thereof” (Novartis AG, priority 2012, dated 2014).

Each compound was assayed against PI3Kgamma (Homo sapiens, UniProt P48736) (assay: Biochemical PI3Kgamma (TR-FRET Adapta Universal Kinase Assay)). Details: mean of n measurements, read-out: PIK3g/ IC50.
Sequence of PI3Kgamma (P48736 whole entry, species assumed): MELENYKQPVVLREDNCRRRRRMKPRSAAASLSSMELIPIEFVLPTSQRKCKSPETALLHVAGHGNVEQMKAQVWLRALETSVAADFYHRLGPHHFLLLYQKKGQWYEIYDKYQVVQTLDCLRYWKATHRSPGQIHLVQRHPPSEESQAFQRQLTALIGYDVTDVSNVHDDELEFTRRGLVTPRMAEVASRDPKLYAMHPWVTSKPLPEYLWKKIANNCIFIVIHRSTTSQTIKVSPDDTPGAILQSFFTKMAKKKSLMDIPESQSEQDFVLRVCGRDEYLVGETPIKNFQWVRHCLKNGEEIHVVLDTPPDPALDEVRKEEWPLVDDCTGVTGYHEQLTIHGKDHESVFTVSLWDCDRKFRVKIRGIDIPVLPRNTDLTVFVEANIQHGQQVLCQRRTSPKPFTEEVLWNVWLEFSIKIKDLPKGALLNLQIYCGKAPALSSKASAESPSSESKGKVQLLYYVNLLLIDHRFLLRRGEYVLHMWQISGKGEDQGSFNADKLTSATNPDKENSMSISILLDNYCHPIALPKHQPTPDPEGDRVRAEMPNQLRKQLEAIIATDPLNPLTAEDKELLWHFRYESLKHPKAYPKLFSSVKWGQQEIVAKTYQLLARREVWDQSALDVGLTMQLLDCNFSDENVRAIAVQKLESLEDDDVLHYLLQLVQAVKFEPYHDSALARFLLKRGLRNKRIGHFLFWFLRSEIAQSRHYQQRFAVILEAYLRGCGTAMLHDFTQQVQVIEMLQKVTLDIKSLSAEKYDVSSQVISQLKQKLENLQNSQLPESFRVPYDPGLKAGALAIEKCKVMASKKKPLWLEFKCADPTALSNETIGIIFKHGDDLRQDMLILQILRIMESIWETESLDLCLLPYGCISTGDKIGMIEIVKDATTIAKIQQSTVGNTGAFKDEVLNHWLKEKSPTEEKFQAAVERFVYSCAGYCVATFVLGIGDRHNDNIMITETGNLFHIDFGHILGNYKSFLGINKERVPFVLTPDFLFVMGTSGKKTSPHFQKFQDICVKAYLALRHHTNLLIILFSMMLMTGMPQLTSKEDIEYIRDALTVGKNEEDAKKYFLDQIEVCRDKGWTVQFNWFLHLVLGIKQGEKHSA
Method: Test compounds were dissolved in DMSO (10 mM) and transferred into 1.4 mL flat bottom or V-shaped Matrix tubes carrying a unique 2D matrix chip by individual Novartis compound hubs. The numbers of these chips were distinctively linked to Novartis Pharma Numbers. The stock solutions were stored at −20° C. if not used immediately. For the test procedure the vials were defrosted and identified by a scanner whereby a working sheet was generated that guided the subsequent working steps.
Compounds were either manually diluted in DMSO for individual experiments (96 wells enabling 10 cpds at 8 (single points) concentrations) as described in or prepared as described below if tested for profiling in 384-wells. This format enabled the assay of maximally 40 individual test compounds at 8 concentrations (single points) including 4 reference compounds. The dilution protocol included the production of “pre-dilution plates”, “master plates” and “assay plates”.
96 polypropylene well plates were used as pre-dilution plates. A total of 4 pre-dilution plates were prepared including 10 test compounds each on the plate positions A1-A10, one standard compound at A11 and one DMSO control at A12. Programs have been written to run these pipetting steps on the HamiltonSTAR robots.
100 μL of individual compound dilutions including standard compound and controls of the 4 “pre-dilution plates” were transferred into a 384 “master plate” including the following concentrations 1,820, 564, 182, 54.6, 18.2, 5.46, 1.82 and 0.546 μM, respectively in 90% DMSO.
Identical “assay plates” were then prepared by pipetting 50 nL each of compound dilutions of the “master plates” into 384-well “assay plates”. The compounds were mixed with 4.5 μL of assays components plus 4.5 μL enzyme corresponding to a 1:181 dilution enabling the final concentration of 10, 3.0, 1.0, 0.3, 0.1, 0.03, 0.01 and 0.003 μM, respectively. The preparation of the “master plates” was handled by the Matrix PlateMate Plus robot and replication of “assay plates” by the HummingBird robot.
The TR-FRET Adapta™ Universal Kinase Assay Kit was purchased from Invitrogen Corporation (Carlsbad/CA, USA) (Cat. No. PV5099). The kit contains the following reagents: Adapta Eu-anti-ADP Antibody (Europium labeled anti-ADP antibody in HEPES buffered saline, Cat. No. PV5097), Alexa Fluor® 647-labeled ADP tracer (Alexa Fluor® 647-labeled ADP tracer in HEPES buffered saline, Cat. No. PV5098), proprietary TR-FRET dilution buffer pH 7.5 (Cat. No. PV3574).
PIK3CD substrate Phosphatidylinositol was obtained from Invitrogen (vesicules consisting of 2 mM PI in 50 mM HEPES pH7.5; Cat. No. PV5371). PIK3CG substrate Phosphatidylinositol-4,5-bisphosphate (PIP(4,5)2 was obtained from Invitrogen (PIP2:PS large unilamellar vesicules consisting of 1 mM PIP2: 19 mM PS in 50 mM HEPES pH7.5, 3 mM MgCl2, 1 mM EGTA; Cat. No. PV5100).
Time-Resolved Fluorescence Resonance Energy Transfer (TR-FRET) is a technology based on energy transfer between two adjacent dyes, from an excited electron in one dye (the donor) to an electron of an adjacent dye (the acceptor) through resonance, then released as a photon. This energy transfer is detected by an increase in the fluorescence emission of the acceptor, and a decrease in the fluorescence emission of the donor. TR-FRET assays for protein kinases use a long-lifetime lanthanide Terbium or Europium chelates as the donor species which overcome interference from compound autofluorescence or light scatter from precipitated compounds, by introducing a delay after excitation by a flashlamp excitation source. Results are often expressed as a ratio of the intensities of the acceptor and donor fluorophores. The ratiometric nature of such a value corrects for differences in assay volumes between wells, as well as corrects for quenching effects due to colored compounds. The Adapta™ assay can be divided into two phases: a kinase reaction phase and an ADP detection phase. […]
Compound Nc1ncc(-c2cc(N3C[C@@H](CO)OC3=O)nc(N3CCOCC3)n2)c(C(F)(F)F)n1 [Example 14, (S)-3-(2′-Amino-2-morpholin-4-yl-4′-trifluoromethyl-[4,5′]bipyrimidinyl-6-yl)-5-hydroxymethyl-oxazolidin-2-one] has an IC50 of 1230 nM. In the case of C[C@H]1[C@@H](CCO)OC(=O)N1c1cc(-c2cnc(N)nc2C(F)(F)F)nc(N2CCOCC2)n1 [Example 23, (4S,5R)-3-(2′-Amino-2-morpholino-4′-(trifluoromethyl)-[4,5′-bipyrimidin]-6-yl)-5-(2-hydroxyethyl)-4-methyloxazolidin-2-one], the IC50 is reported as 207 nM. With COC[C@H]1COC(=O)N1c1cc(-c2cnc(N)nc2C(F)(F)F)nc(N2CCOCC2)n1 [Example 5, (S)-3-(2′-Amino-2-morpholin-4-yl-4′-trifluoromethyl-[4,5′]bipyrimidinyl-6-yl)-4-methoxymethyl-oxazolidin-2-one] the IC50 was 329 nM. C[C@H]1COCCN1c1nc(-c2cnc(N)nc2C(F)(F)F)cc(N2C(=O)OC[C@@H]2C)n1 [Example 13, (S)-3-[2′-Amino-2-((S)-3-methyl-morpholin-4-yl)-4′-trifluoromethyl-[4,5′]bipyrimidinyl-6-yl]-4-methyl-oxazolidin-2-one] gave an IC50 of 386 nM. Nc1ncc(-c2cc(N3C(=O)OC4C(O)CCC43)nc(N3CCOCC3)n2)c(C(F)(F)F)n1 (single isomer, unassigned) [Example 22A] showed an IC50 of 110 nM. In the case of C[C@H]1C(CC(C)(C)O)OC(=O)N1c1cc(-c2cnc(N)nc2C(F)(F)F)nc(N2CCOCC2)n1 (mixture of isomers) [Example 26, (4S,5R)- and (4S,5S)-3-(2′-amino-2-morpholino-4′-(trifluoromethyl)-[4,5′-bipyrimidin]-6-yl)-5-(2-hydroxy-2-methylpropyl)-4-methyloxazolidin-2-one], the IC50 is reported as 290 nM. For C[C@H]1OC(=O)N(c2cc(-c3cnc(N)nc3C(F)(F)F)nc(N3CCOCC3)n2)[C@H]1CO [Example 18, (4S,5R)-3-(2′-Amino-2-morpholin-4-yl-4′-trifluoromethyl-[4,5′]bipyrimidinyl-6-yl)-4-hydroxymethyl-5-methyl-oxazolidin-2-one], the IC50 was 253 nM. Compound [2H]C1([2H])OC([2H])([2H])C([2H])([2H])N(c2nc(-c3cnc(N)nc3C(F)(F)F)cc(N3C(=O)O[C@H](C)[C@@H]3CO)n2)C1([2H])[2H] [Example 8] has an IC50 of 237 nM. In the case of C[C@@H]1OC(=O)N(c2cc(-c3cnc(N)nc3C(F)(F)F)nc(N3CCOCC3)n2)[C@H]1CO [Example 6], the IC50 is reported as 258 nM. C[C@H]1OC(=O)N(c2cc(-c3cnc(N)nc3C(F)(F)F)nc(N3CCOC[C@@H]3C)n2)[C@H]1CO [Example 10, (4S,5R)-3-[2′-Amino-2-((S)-3-methyl-morpholin-4-yl)-4′-trifluoromethyl-[4,5′]bipyrimidinyl-6-yl]-4-hydroxymethyl-5-methyl-oxazolidin-2-one] gave an IC50 of 158 nM. CC1(C)OC(=O)N(c2cc(-c3cnc(N)nc3C(F)(F)F)nc(N3CCOCC3)n2)[C@H]1CO [Example 2, (S)-3-(2′-Amino-2-morpholin-4-yl-4′-trifluoromethyl-[4,5′]bipyrimidinyl-6-yl)-4-hydroxymethyl-5,5-dimethyl-oxazolidin-2-one] gave an IC50 of 348 nM. C[C@H](O)CC1OC(=O)N(c2cc(-c3cnc(N)nc3C(F)(F)F)nc(N3CCOCC3)n2)[C@H]1C (single isomer, unassigned) [Example 25] was tested, and the IC50 was 205 nM. Nc1ncc(-c2cc(N3C(=O)O[C@H]4CCCC[C@@H]43)nc(N3CCOCC3)n2)c(C(F)(F)F)n1 [Example 4, (3aS,7aS)-3-(2′-Amino-2-morpholin-4-yl-4′-trifluoromethyl-[4,5′]bipyrimidinyl-6-yl)-hexahydro-benzooxazol-2-one] gave an IC50 of 238 nM. Work on C[C@@H](O)C[C@H]1OC(=O)N(c2cc(-c3cnc(N)nc3C(F)(F)F)nc(N3CCOCC3)n2)[C@H]1C (single isomer, unassigned) [Example 24] yielded an IC50 of 540 nM. For Nc1ncc(-c2cc(N3C(=O)OC4C(O)CCC43)nc(N3CCOCC3)n2)c(C(F)(F)F)n1 (single isomer, unassigned) [Example 22B], the IC50 was 410 nM. In the case of Nc1ncc(-c2cc(N3CCOC3=O)nc(N3CCOCC3)n2)c(C(F)(F)F)n1 [Example 11, 3-(2′-Amino-2-morpholin-4-yl-4′-trifluoromethyl-[4,5′]bipyrimidinyl-6-yl)-oxazolidin-2-one, reference compound], the IC50 is reported as 998 nM. Nc1ncc(-c2cc(N3C(=O)OC[C@@H]3CCO)nc(N3CCOCC3)n2)c(C(F)(F)F)n1 [Example 9, (S)-3-(2′-Amino-2-morpholin-4-yl-4′-trifluoromethyl-[4,5′]bipyrimidinyl-6-yl)-4-(2-hydroxy-ethyl)-oxazolidin-2-one] was tested, and the IC50 was 1130 nM. With C[C@H]1COC(=O)N1c1cc(-c2cnc(N)nc2C(F)(F)F)nc(N2CCOCC2)n1 [Example 1, (S)-3-(2′-Amino-2-morpholin-4-yl-4′-trifluoromethyl-[4,5′]bipyrimidinyl-6-yl)-4-methyl-oxazolidin-2-one] the IC50 was 276 nM. For C[C@H]1CN(c2cc(-c3cnc(N)nc3C(F)(F)F)nc(N3CCOCC3)n2)C(=O)O1 [Example 16, (S)-3-(2′-Amino-2-morpholin-4-yl-4′-trifluoromethyl-[4,5′]bipyrimidinyl-6-yl)-5-methyl-oxazolidin-2-one], the IC50 was 770 nM. Compound CC1(CO)COC(=O)N1c1cc(-c2cnc(N)nc2C(F)(F)F)nc(N2CCOCC2)n1 (racemic) [Example 3, 3-(2′-amino-2-morpholino-4′-(trifluoromethyl)-4,5′-bipyrimidin-6-yl)-4-(hydroxymethyl)-4-methyloxazolidin-2-one] has an IC50 of 516 nM. With Nc1ncc(-c2cc(N3C(=O)O[C@@H]4[C@@H](O)CC[C@@H]43)nc(N3CCOCC3)n2)c(C(F)(F)F)n1 (racemic) [Example 22, (3aR*,6R*,6aR*)-3-(2′-Amino-2-morpholino-4′-(trifluoromethyl)-[4,5′-bipyrimidin]-6-yl)-6-hydroxyhexahydro-2H-cyclopenta[d]oxazol-2-one] the IC50 was 145 nM. Work on C[C@H]1OC(=O)N(c2cc(-c3cnc(N)nc3C(F)(F)F)nc(N3CCOCC3)n2)[C@H]1COC=O [Example 12, Formic acid (4S,5R)-3-(2′-amino-2-morpholin-4-yl-4′-trifluoromethyl-[4,5′]bipyrimidinyl-6-yl)-5-methyl-2-oxo-oxazolidin-4-ylmethyl ester] yielded an IC50 of 1660 nM. With Nc1ncc(-c2cc(N3C[C@H](CO)OC3=O)nc(N3CCOCC3)n2)c(C(F)(F)F)n1 [Example 20, (R)-3-(2′-Amino-2-morpholin-4-yl-4′-trifluoromethyl-[4,5′]bipyrimidinyl-6-yl)-5-hydroxymethyl-oxazolidin-2-one] the IC50 was 601 nM. C[C@H]1[C@@H](CO)OC(=O)N1c1cc(-c2cnc(N)nc2C(F)(F)F)nc(N2CCOCC2)n1 [Example 19, (4S,5S)-3-(2′-Amino-2-morpholin-4-yl-4′-trifluoromethyl-[4,5′]bipyrimidinyl-6-yl)-5-hydroxymethyl-4-methyl-oxazolidin-2-one] showed an IC50 of 184 nM. [2H]C1([2H])OC([2H])([2H])C([2H])([2H])N(c2nc(-c3cnc(N)nc3C(F)(F)F)cc(N3C(=O)OC[C@@H]3C)n2)C1([2H])[2H] [Example 17, (S)-3-(2′-amino-2-D8-morpholino-4′-(trifluoromethyl)-[4,5′-bipyrimidin]-6-yl)-4-methyloxazolidin-2-one] gave an IC50 of 328 nM. With Nc1ncc(-c2cc(N3C(=O)O[C@H]4COC[C@H]43)nc(N3CCOCC3)n2)c(C(F)(F)F)n1 [Example 21, (3aR,6aR)-3-(2′-amino-2-morpholino-4′-(trifluoromethyl)-[4,5′-bipyrimidin]-6-yl)-tetrahydrofuro[3,4-d]oxazol-2(3H)-one] the IC50 was 370 nM.
